The values that follow come from patent US20250064809A1, “Inhibitors of Mutant RET Kinases for use in Treating Cancer” (Stemline Therapeutics, Inc., priority 2021, published 2025).

In general, IC50 refers to the concentration that gives 50% inhibition.

One test concerns Ba/F3 KIF5B-RET. The experiment in a line: In vitro cell viability assay (CellTiter-Glo). The class given is cell-based. As to conditions: Mus musculus, BaF3, 72 h; Ba/F3 KIF5B-RET (wild type RET), 3 days. Background: In ATP-based viability assays light output follows the ATP content of the culture.
The test system of the next test is Ba/F3 KIF5B-RET-G810R. The experiment in a line: In vitro cell viability assay (CellTiter-Glo). The class given is cell-based. As to conditions: Mus musculus, BaF3, 72 h, 3 days.
For another test, the system named is Ba/F3 KIF5B-RET-G810C. The experiment in a line: In vitro cell viability assay (CellTiter-Glo). The test is classed as cell-based. As to conditions: Mus musculus, BaF3, 72 h, 3 days.
For a further test, the system named is Ba/F3 KIF5B-RET-G810S. The experiment in a line: In vitro cell viability assay (CellTiter-Glo). The class given is cell-based. The conditions noted are these: Mus musculus, BaF3, 72 h, 3 days.
Test [1] concerns Ba/F3 cells expressing KIF5B-RET with a G810 RET mutant domain. Nature of the test: In vitro cell viability assay, mutant RET kinase cell lines compared to wild type. The conditions noted are these: Ba/F3 KIF5B-RET G810R, G810C, G810S versus wild type. The test is classed as cell-based, mouse.

As for `CO[C@]1(C(=O)N[C@@H](C)c2ccc(-n3cc(F)cn3)nc2)CC[C@H](c2nc(C)cc(Nc3cc(C)[nH]n3)n2)CC1` [Pralsetinib, pralsetinib], the concentration for half-maximal inhibition (IC50) in the test with Ba/F3 KIF5B-RET is 29.6 nM; with Ba/F3 KIF5B-RET-G810R it was 1300 nM; in the test with Ba/F3 KIF5B-RET-G810C it was 551 nM; in the test with Ba/F3 KIF5B-RET-G810S, 90.5 nM. Further, in test [1], the “increase in IC50 values against mutant RET kinase cell lines as compared to wild type RET kinase cell lines” value is on record as 3-44 fold.
Consider `COc1ccc(CN2C3CC2CN(c2ccc(-c4cc(OCC(C)(C)O)cn5ncc(C#N)c45)cn2)C3)cn1` [Selpercatinib, selpercatinib], for which the IC50 in the test with Ba/F3 KIF5B-RET was 24.4 nM; with Ba/F3 KIF5B-RET-G810R, 986 nM; with Ba/F3 KIF5B-RET-G810C, 1080 nM; in the test on Ba/F3 KIF5B-RET-G810S, 204 nM. Also, in test [1], the “increase in IC50 values against mutant RET kinase cell lines as compared to wild type RET kinase cell lines” value was 8-44 fold.
